Values joined by “and” are separate entries in the source; they are usually repeats but may differ in a detail not shown here. Identical values can stand only once.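 How tested: cells in 96-well plates exposed to compound for 48 hours at five concentrations. GI50 = concentration required for 50% inhibition of growth. TGI marks complete inhibition of growth.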
Legend:
Test in all cases: NCI anticancer screen, dose series, 48 h
MOLT-4 leukemia = system: MOLT-4 leukemia
SF-539 CNS = system: SF-539 CNS
HL-60(TB) leukemia = system: HL-60(TB) leukemia
A549 NSCLC = system: A549 NSCLC
M14 melanoma = system: M14 melanoma
OVCAR-4 ovarian = system: OVCAR-4 ovarian
SR leukemia = system: SR leukemia
786-0 renal = system: 786-0 renal
A498 renal = system: A498 renal
ACHN renal = system: ACHN renal

For Oc1ccc(C=Nc2ccccc2O)cc1, the TGI (MOLT-4 leukemia) was over 100 µM, the TGI (SF-539 CNS) was over 100 µM and the TGI (HL-60(TB) leukemia) was 42.1 µM. For the same molecule, the TGI (A549 NSCLC) was over 100 µM, the TGI (M14 melanoma) was over 100 µM and the TGI (OVCAR-4 ovarian) was over 100 µM. For the same molecule, the TGI (SR leukemia) was over 100 µM, the TGI (786-0 renal) was 67.4 µM and the TGI (A498 renal) was over 100 µM. For the same molecule, the TGI (ACHN renal) was over 100 µM.
Molecule CNC(=O)c1c(C)oc2cc(Oc3ncnc4cc(OC)c(OC)cc34)ccc12 has a GI50 (MOLT-4 leukemia) of over 100 µM, a TGI (MOLT-4 leukemia) of over 100 µM and a GI50 (SF-539 CNS) of 2.03 µM. The TGI (SF-539 CNS) was over 100 µM, the GI50 (HL-60(TB) leukemia) was over 100 µM and the TGI (HL-60(TB) leukemia) was over 100 µM. The GI50 (A549 NSCLC) was over 100 µM, the TGI (A549 NSCLC) was over 100 µM and the GI50 (OVCAR-4 ovarian) was over 100 µM. The TGI (OVCAR-4 ovarian) was over 100 µM, the GI50 (SR leukemia) was over 100 µM and the TGI (SR leukemia) was over 100 µM. The GI50 (786-0 renal) was over 100 µM, the TGI (786-0 renal) was over 100 µM and the GI50 (A498 renal) was 0.946 µM. It also gave a TGI (A498 renal) of 5.44 µM, a GI50 (ACHN renal) of over 100 µM and a TGI (ACHN renal) of over 100 µM.
With C=C[C@@H](C)[C@]1(C(=O)OC)CCCC12OCCO2 the TGI (MOLT-4 leukemia) was over 100 µM, the TGI (SF-539 CNS) was over 100 µM and the TGI (HL-60(TB) leukemia) was over 100 µM. The TGI (A549 NSCLC) was over 100 µM, the TGI (M14 melanoma) was over 100 µM and the TGI (OVCAR-4 ovarian) was over 100 µM. The TGI (SR leukemia) was over 100 µM, the TGI (786-0 renal) was over 100 µM and the TGI (A498 renal) was over 100 µM. For the same molecule, the TGI (ACHN renal) was over 100 µM.
Molecule Cc1cnc2ccc(C)c([N+](=O)[O-])c2c1NCCCN(C)C has a TGI (MOLT-4 leukemia) of over 100 µM, a TGI (SF-539 CNS) of over 100 µM and a TGI (HL-60(TB) leukemia) of over 100 µM. The TGI (A549 NSCLC) was over 100 µM, the TGI (M14 melanoma) was over 100 µM and the TGI (OVCAR-4 ovarian) was over 100 µM. For the same molecule, the TGI (SR leukemia) was over 100 µM, the TGI (786-0 renal) was over 100 µM and the TGI (ACHN renal) was over 100 µM.
In the case of CC[C@H](C)[C@H](NC(=O)[C@H]1CCCCN1C)C(=O)N(C)[C@H](C[C@@H](OC(C)=O)c1cccc(C(=O)N[C@@H](Cc2ccccc2)C[C@H](C)C(=O)OC)n1)C(C)C, the GI50 (MOLT-4 leukemia) is reported as 0.00811 µM and 0.0111 µM, the TGI (MOLT-4 leukemia) is reported as over 25 µM and the GI50 (SF-539 CNS) is reported as 0.00592 µM. The TGI (SF-539 CNS) was 0.0183 µM, the GI50 (HL-60(TB) leukemia) was 0.0017 µM and < 0.0025 µM and the TGI (HL-60(TB) leukemia) was 0.00655 µM and < 0.0025 µM. For the same molecule, the GI50 (A549 NSCLC) was 0.0377 µM and 0.00974 µM, the TGI (A549 NSCLC) was over 25 µM and the GI50 (M14 melanoma) was 0.00227 µM. For the same molecule, the TGI (M14 melanoma) was 0.0128 µM, the GI50 (OVCAR-4 ovarian) was 0.0277 µM and 0.0138 µM and the TGI (OVCAR-4 ovarian) was over 25 µM. The GI50 (SR leukemia) was 0.00055 µM and 0.0025 µM, the TGI (SR leukemia) was over 25 µM and the GI50 (786-0 renal) was 0.00526 µM and 0.00425 µM. The TGI (786-0 renal) was 18.3 µM, the GI50 (A498 renal) was 0.00445 µM and 0.0025 µM and the TGI (A498 renal) was 0.0166 µM. The GI50 (ACHN renal) was 0.00638 µM and 0.013 µM and the TGI (ACHN renal) was over 25 µM.
Work on COc1ccc(/C=C\c2cc(OC)c(OC)c(OC)c2)cc1OCC(=O)Nc1nc2ccc(F)cc2s1 yielded a GI50 (MOLT-4 leukemia) of 3.07 µM, a TGI (MOLT-4 leukemia) of over 100 µM and a GI50 (SF-539 CNS) of 4.51 µM. It also gave a TGI (SF-539 CNS) of over 100 µM, a GI50 (A549 NSCLC) of 5.99 µM and a TGI (A549 NSCLC) of over 100 µM. It also gave a GI50 (M14 melanoma) of 6.82 µM, a TGI (M14 melanoma) of over 100 µM and a GI50 (OVCAR-4 ovarian) of 7.3 µM. The TGI (OVCAR-4 ovarian) was over 100 µM, the GI50 (SR leukemia) was 2.19 µM and the TGI (SR leukemia) was over 100 µM. The GI50 (786-0 renal) was 7.12 µM, the TGI (786-0 renal) was over 100 µM and the GI50 (A498 renal) was 6.25 µM. It also gave a TGI (A498 renal) of over 100 µM, a GI50 (ACHN renal) of 3.33 µM and a TGI (ACHN renal) of over 100 µM.
Work on C[C@@H](Oc1cc(-n2cnc3ccc(OC4CCN(C)CC4)cc32)sc1C(N)=O)c1ccccc1Cl yielded a GI50 (MOLT-4 leukemia) of 0.0123 µM, a TGI (MOLT-4 leukemia) of 5.19 µM and a GI50 (SF-539 CNS) of 0.0564 µM. It also gave a TGI (SF-539 CNS) of 2.29 µM, a GI50 (HL-60(TB) leukemia) of 0.00871 µM and a TGI (HL-60(TB) leukemia) of 2.92 µM. For the same molecule, the GI50 (A549 NSCLC) was 0.0183 µM, the TGI (A549 NSCLC) was 3 µM and the GI50 (OVCAR-4 ovarian) was 1.62 µM. For the same molecule, the TGI (OVCAR-4 ovarian) was 9.09 µM, the GI50 (SR leukemia) was 0.0103 µM and the TGI (SR leukemia) was 0.532 µM. For the same molecule, the GI50 (786-0 renal) was 0.0951 µM, the TGI (786-0 renal) was 3.48 µM and the GI50 (A498 renal) was 0.0403 µM. It also gave a TGI (A498 renal) of 0.301 µM, a GI50 (ACHN renal) of 0.212 µM and a TGI (ACHN renal) of 9.19 µM.
